# According to patent US9938269B2, “Inhibitor compounds of phosphodiesterase type 10A” (ABBVIE INC., priority 2011, dated 2018):
# Where a name gives a salt, the structure may show the parent alone.
# Target: T1, PDE10A (human) (Homo sapiens, UniProt Q9Y233)
# T1 construct: purchased BPS Bioscience
# Assay: Measurement of PDE activity (HTRF cAMP kit), human PDE10A
# Type: biochemical
# Conditions: PDE enzymatic reaction, substrate 20 nM for PDE10, 60 minutes at 29 C
# Procedure, shortened: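 Recombinant human PDE10A (10–250 pM range across PDEs) with 20 nM cAMP substrate in 20 mM Tris-HCl pH 7.5, 10 mM MgCl2, 0.1% BSA, compound pre-mixed with enzyme. Ran 60 min at 29 °C. Remaining cAMP read by HTRF, converted to % of uninhibited activity, and IC50 fitted.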
# T1 sequence (Q9Y233 whole entry): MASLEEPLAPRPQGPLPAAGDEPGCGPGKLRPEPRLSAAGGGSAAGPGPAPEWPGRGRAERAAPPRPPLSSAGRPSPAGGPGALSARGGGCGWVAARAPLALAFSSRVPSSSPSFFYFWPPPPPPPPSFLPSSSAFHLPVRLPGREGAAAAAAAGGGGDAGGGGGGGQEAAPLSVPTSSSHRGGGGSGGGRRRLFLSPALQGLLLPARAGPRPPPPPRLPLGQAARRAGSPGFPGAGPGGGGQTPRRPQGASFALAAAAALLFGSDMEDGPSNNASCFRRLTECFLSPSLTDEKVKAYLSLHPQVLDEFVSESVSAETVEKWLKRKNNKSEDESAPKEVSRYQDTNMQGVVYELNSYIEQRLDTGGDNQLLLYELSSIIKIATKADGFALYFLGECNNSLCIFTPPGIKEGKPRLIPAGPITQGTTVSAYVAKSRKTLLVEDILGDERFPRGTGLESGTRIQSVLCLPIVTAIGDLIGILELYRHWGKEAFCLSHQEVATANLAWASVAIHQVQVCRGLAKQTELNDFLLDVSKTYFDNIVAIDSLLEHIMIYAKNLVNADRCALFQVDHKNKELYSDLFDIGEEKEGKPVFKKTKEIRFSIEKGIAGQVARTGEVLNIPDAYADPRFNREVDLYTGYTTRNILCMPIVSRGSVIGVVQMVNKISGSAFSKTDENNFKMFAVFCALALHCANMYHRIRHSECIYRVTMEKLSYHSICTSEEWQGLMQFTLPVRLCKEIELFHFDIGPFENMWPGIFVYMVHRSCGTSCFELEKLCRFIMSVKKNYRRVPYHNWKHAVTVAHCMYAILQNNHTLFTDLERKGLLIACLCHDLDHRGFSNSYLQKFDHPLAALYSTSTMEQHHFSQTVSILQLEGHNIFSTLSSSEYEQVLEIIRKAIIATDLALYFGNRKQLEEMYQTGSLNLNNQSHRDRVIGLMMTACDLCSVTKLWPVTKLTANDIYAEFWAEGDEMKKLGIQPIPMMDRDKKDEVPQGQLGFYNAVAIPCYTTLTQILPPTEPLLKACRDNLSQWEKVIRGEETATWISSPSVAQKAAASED
row,SMILES,IC50
1,"CC(C)n1c(CCN2Cc3cccc(N4CCOCC4)c3C2=O)nc2ccccc21 [Example 304, 2-[2-(1-Isopropyl-1H-benzoimidazol-2-yl)-ethyl]-7-morpholin-4-yl-2,3-dihydro-isoindol-1-one trifluoroacetate]",100 to 200 nM
2,"O=C1c2c(-c3ccncc3)ccnc2CN1CCc1cc(-c2ccncc2)c2ccccc2n1 [compound 484, 4-(4-Pyridyl)-6-[2-[4-(4-pyridyl)-2-quinolyl]ethyl]-7H-pyrrolo[3,4-b]pyridin-5-one]",< 100 nM
3,"COc1ccc(-c2ccc(F)cc2)c2c1CN(CCc1ccc3ccccc3n1)C2=O [Example 187, 7-(4-Fluoro-phenyl)-4-methoxy-2-(2-quinolin-2-yl-ethyl)-2,3-dihydro-isoindol-1-one]",< 100 nM
4,"O=C1c2c(-c3ccncc3)ccc(OCCF)c2CN1CCc1ccc2ccccc2n1 [compound 533, 4-(2-Fluoro-ethoxy)-7-pyridin-4-yl-2-(2-quinolin-2-yl-ethyl)-2,3-dihydro-isoindol-1-one]",< 100 nM
5,"O=C1c2c(cccc2-c2cc(F)ccc2F)CN1CCc1ccc2ccccc2n1 [Example 51, 7-(2,5-Difluoro-phenyl)-2-(2-quinolin-2-yl-ethyl)-2,3-dihydro-isoindol-1-one]",200 to 500 nM
6,"CCn1cc(-c2ccnc3c2C(=O)N(CCc2ccc4ccccc4n2)C3)cn1 [Example 333, 4-(1-Ethyl-1H-pyrazol-4-yl)-6-(2-quinolin-2-yl-ethyl)-6,7-dihydro-pyrrolo[3,4-b]pyridin-5-one]",100 to 200 nM
7,"O=C1c2c(cccc2-c2ccccc2)CN1CCc1ccc2ccccc2n1 [Example 21, 7-Phenyl-2-(2-quinolin-2-yl-ethyl)-2,3-dihydro-isoindol-1-one]",100 to 200 nM
8,"Cc1noc(C)c1-c1cccc2c1CN(CCc1ccc3ccccc3n1)C2=O [Example 349, 4-(3,5-Dimethyl-isoxazol-4-yl)-2-(2-quinolin-2-yl-ethyl)-2,3-dihydro-isoindol-1-one]",200 to 500 nM
9,"O=C1c2c(cccc2-c2nccs2)CN1CCc1ccc2ccccc2n1 [Example 82, 2-(2-Quinolin-2-yl-ethyl)-7-thiazol-2-yl-2,3-dihydro-isoindol-1-one]",200 to 500 nM
10,"O=C1c2c(cccc2-c2ccncc2)CN1CCc1nc2ccccc2n1CCN1CCOCC1 [Example 292, 2-{2-[1-(2-Morpholin-4-yl-ethyl)-1H-benzoimidazol-2-yl]-ethyl}-7-pyridin-4-yl-2,3-dihydro-isoindol-1-one trifluoroacetate]",< 100 nM
11,"O=C1c2cccc(-c3ccsc3)c2CN1CCc1ccc2ccccc2n1 [Example 345, 2-(2-Quinolin-2-yl-ethyl)-4-thiophen-3-yl-2,3-dihydro-isoindol-1-one]",< 100 nM
12,"CCc1ccc(CCN2Cc3nccc(N4CCOCC4)c3C2=O)nc1 [compound 499, 6-[2-(5-Ethyl-2-pyridyl)ethyl]-4-morpholino-7H-pyrrolo[3,4-b]pyridin-5-one trifluoroacetate]",< 100 nM
13,"COc1ccc(-c2cccc3c2C(=O)N(CCc2ccc4ccccc4n2)C3)cc1 [Example 23, 7-(4-Methoxy-phenyl)-2-(2-quinolin-2-yl-ethyl)-2,3-dihydro-isoindol-1-one]",< 100 nM
14,"O=C1c2c(cccc2-c2ccc3cn[nH]c3c2)CN1CCc1ccc2ccccc2n1 [Example 97, 7-(1H-Indazol-6-yl)-2-(2-quinolin-2-yl-ethyl)-2,3-dihydro-isoindol-1-one]",< 100 nM
15,"Cc1ccc2nc(CCN3Cc4nccc(-c5ccncc5)c4C3=O)ccc2c1 [compound 406, 6-[2-(6-Methyl-2-quinolyl)ethyl]-4-(4-pyridyl)-7H-pyrrolo[3,4-b]pyridin-5-one]",< 100 nM
16,"O=C1c2c(cccc2OCc2cccnc2)CN1CCc1ccc2ccccc2n1 [Example 127, 7-(Pyridin-3-ylmethoxy)-2-(2-quinolin-2-yl-ethyl)-2,3-dihydro-isoindol-1-one]",100 to 200 nM
17,"O=C1c2c(NC3COC3)ccc(F)c2CN1CCc1ccc2ccccc2n1 [compound 437, 4-Fluoro-7-(oxetan-3-ylamino)-2-[2-(2-quinolyl)ethyl]isoindolin-1-one]",< 100 nM
18,"O=C1c2c(cccc2-c2cncc(F)c2)CN1CCc1ccc2ccccc2n1 [Example 77, 7-(5-Fluoro-pyridin-3-yl)-2-(2-quinolin-2-yl-ethyl)-2,3-dihydro-isoindol-1-one]",< 100 nM
19,"O=C1c2cccc(-c3cccnc3)c2C(=O)N1CCc1ccc2ccccc2n1 [Example 271, 4-Pyridin-3-yl-2-(2-quinolin-2-yl-ethyl)-isoindole-1,3-dione]",< 100 nM
20,"CN(C)CCn1c(CCN2Cc3cccc(-c4ccncc4)c3C2=O)nc2ccccc21 [Example 293, 2-{2-[1-(2-Dimethylamino-ethyl)-1H-benzoimidazol-2-yl]-ethyl}-7-pyridin-4-yl-2,3-dihydro-isoindol-1-one trifluoroacetate]",< 100 nM
21,"O=C1c2cccc(-c3ccncc3)c2CN1CCc1ccc2ccccc2n1 [Example 181, 4-Pyridin-4-yl-2-(2-quinolin-2-yl-ethyl)-2,3-dihydro-isoindol-1-one]",< 100 nM
22,"O=C1c2c(cccc2N2CCSCC2)CN1CCc1ccc2ccccc2n1 [Example 150, 2-(2-Quinolin-2-yl-ethyl)-7-thiomorpholin-4-yl-2,3-dihydro-isoindol-1-one]",< 100 nM
23,"CN(C)c1cccc(-c2cccc3c2C(=O)N(CCc2ccc4ccccc4n2)C3)c1 [Example 43, 7-(3-Dimethylamino-phenyl)-2-(2-quinolin-2-yl-ethyl)-2,3-dihydro-isoindol-1-one]",200 to 500 nM
24,"CC(C)n1c(CCN2Cc3cccc(-c4ccncc4)c3C2=O)nc2ccccc21 [Example 303, 2-[2-(1-Isopropyl-1H-benzoimidazol-2-yl)-ethyl]-7-pyridin-4-yl-2,3-dihydro-isoindol-1-one trifluoroacetate]",100 to 200 nM

# Results, then the compound that gave them:
row,IC50,SMILES
1,< 100 nM,"COc1ccc(-c2cccc3c2CN(CCc2ccc4ccccc4n2)C3=O)cc1 [Example 203, 4-(4-Methoxy-phenyl)-2-(2-quinolin-2-yl-ethyl)-2,3-dihydro-isoindol-1-one trifluoroacetate]"
2,< 100 nM,"O=C1c2c(cccc2-c2cccnc2)CN1CCc1ccc2ccccc2n1 [Example 30, 7-Pyridin-3-yl-2-(2-quinolin-2-yl-ethyl)-2,3-dihydro-isoindol-1-one]"
3,100 to 200 nM,"Cc1cc(-c2cccc3c2CN(CCc2ccc4ccccc4n2)C3=O)n(C)n1 [Example 348, 4-(2,5-Dimethyl-2H-pyrazol-3-yl)-2-(2-quinolin-2-yl-ethyl)-2,3-dihydro-isoindol-1-one]"
4,100 to 200 nM,"O=C1c2c(cccc2-c2ccn[nH]2)CN1CCc1ccc2sccc2n1 [Example 560, 7-(1H-Pyrazol-5-yl)-2-(2-thieno[3,2-b]pyridin-5-ylethyl)isoindolin-1-one]"
5,100 to 200 nM,"O=C1c2c(cccc2-c2cccc(F)c2)CN1CCc1ccc2ccccc2n1 [Example 27, 7-(3-Fluoro-phenyl)-2-(2-quinolin-2-yl-ethyl)-2,3-dihydro-isoindol-1-one]"
6,< 100 nM,"CCCn1c(CCN2Cc3cccc(-c4ccncc4)c3C2=O)nc2ccccc21 [Example 302, 2-[2-(1-Propyl-1H-benzoimidazol-2-yl)-ethyl]-7-pyridin-4-yl-2,3-dihydro-isoindol-1-one trifluoroacetate]"
7,200 to 500 nM,"O=C1c2c(cccc2-c2ccc(F)cn2)CN1CCc1ccc2ccccc2n1 [Example 88, 7-(5-Fluoro-pyridin-2-yl)-2-(2-quinolin-2-yl-ethyl)-2,3-dihydro-isoindol-1-one]"
8,< 100 nM,"O=C1c2c(cccc2-c2ccncc2F)CN1CCc1ccc2ccccc2n1 [Example 173, 7-(3-Fluoro-pyridin-4-yl)-2-(2-quinolin-2-yl-ethyl)-2,3-dihydro-isoindol-1-one]"
9,100 to 200 nM,"Cn1ccc(-c2cccc3c2CN(CCc2ccc4ccccc4n2)C3=O)c1 [Example 352, 4-(1-Methyl-1H-pyrrol-3-yl)-2-(2-quinolin-2-yl-ethyl)-2,3-dihydro-isoindol-1-one]"
10,< 100 nM,"O=C1c2c(OCCF)ccc(-c3ccncc3)c2C(=O)N1CCc1ccc2ccccc2n1 [compound 532, 4-(2-Fluoro-ethoxy)-7-pyridin-4-yl-2-(2-quinolin-2-yl-ethyl)-isoindole-1,3-dione]"
11,100 to 200 nM,"O=C1c2c(cccc2-c2ccc3c(c2)OCO3)CN1CCc1ccc2ccccc2n1 [Example 34, 7-Benzo[1,3]dioxol-5-yl-2-(2-quinolin-2-yl-ethyl)-2,3-dihydro-isoindol-1-one]"
12,100 to 200 nM,"COc1cnccc1-c1cccc2c1C(=O)N(CCc1ccc3ccccc3n1)C2 [Example 169, 7-(3-Methoxy-pyridin-4-yl)-2-(2-quinolin-2-yl-ethyl)-2,3-dihydro-isoindol-1-one trifluoroacetate]"
13,100 to 200 nM,"O=C1c2c(cccc2-c2cc[nH]n2)CN1CCc1ccc2ccccc2n1 [Example 53, 7-(1H-Pyrazol-3-yl)-2-(2-quinolin-2-yl-ethyl)-2,3-dihydro-isoindol-1-one]"
14,< 100 nM,"O=C1c2c(-c3cn[nH]c3)ccc(F)c2CN1CCc1ccc2ccccc2n1 [compound 442, 4-Fluoro-7-(1H-pyrazol-4-yl)-2-[2-(2-quinolyl)ethyl]isoindolin-1-one trifluoroacetate]"
15,< 100 nM,"N#Cc1ccc(-c2cccc3c2C(=O)N(CCc2ccc4ccccc4n2)C3)s1 [Example 281, 5-[3-oxo-2-(2-quinolin-2-yl-ethyl)-2,3-dihydro-1H-isoindol-4-yl]-thiophene-2-carbonitrile]"
16,< 100 nM,"O=C1c2c(cccc2-c2cn[nH]c2)CN1CCc1ccc2ccccc2n1 [Example 78, 7-(1H-Pyrazol-4-yl)-2-(2-quinolin-2-yl-ethyl)-2,3-dihydro-isoindol-1-one]"
17,100 to 200 nM,"O=C1c2c(cccc2-c2ccc(F)cc2F)CN1CCc1ccc2ccccc2n1 [Example 45, 7-(2,4-Difluoro-phenyl)-2-(2-quinolin-2-yl-ethyl)-2,3-dihydro-isoindol-1-one]"
